Paper PMC8227856, “Antibacterial Activity of a Promising Antibacterial Agent: 22-(4-(2-(4-Nitrophenyl-piperazin-1-yl)-acetyl)-piperazin-1-yl)-22-deoxypleuromutilin” (Molecules, 2021)
≈ marks a conversion by molar mass, not a printed value. Like-named read-outs stand apart in the source and are kept apart here.

How the values were obtained:
[1] = system: MRSA ATCC 43300; experiment: MIC, broth dilution micro-method; type: cell-based; conditions: Staphylococcus aureus, 24 h, MHB
Experimental: (§1) The MICs of NPDM against MRSA were determined by the broth dilution micro-method. Briefly, the stock solution of NPDM and the reference drug tiamulin were diluted by a two-fold serial dilution method with MHB in a 96-well plate to provide concentration ranges of 16~0.032 μg/mL. Then 100 μL of bacterial suspensions in log phase were diluted to 10^6 CFU/mL with MHB and were added to each well to make the final concentrations of the test compounds ranging from 8 to 0.016 μg/mL. The bacterial suspension (no drugs but solvent) was used as the positive control and MHB (no cultures) was used as the negative control. […] The MICs assay was carried out in triplicate.

[2] = system: S. aureus 144 (clinical strain); experiment: MIC, broth dilution micro-method; type: cell-based; conditions: Staphylococcus aureus, 24 h, MHB
Experimental: as §1

[3] = system: S. aureus AD3 (clinical strain); experiment: MIC, broth dilution micro-method; type: cell-based; conditions: Staphylococcus aureus, 24 h, MHB
Experimental: as §1

[4] = system: S. aureus ATCC 29213; experiment: MIC, broth dilution micro-method; type: cell-based; conditions: Staphylococcus aureus, ATCC29213, 24 h, MHB
Experimental: as §1

[5] = system: S. aureus 144 (clinical strain); experiment: MBC assay; type: cell-based; conditions: Staphylococcus aureus
Experimental: (§2) Determination of MBCs refers to the minimum concentrations of antibacterial agents required to kill 99.9% of the test microorganisms after 24 h of incubation. After obtaining the MICs value, the 96-well plates were placed at 37 °C and incubated for 24 h. One hundred microliter aliquots of the bacterial suspensions were taken from the wells without visible bacterial growth and then plated onto MHA plates. […] The MBC assay was conducted at least in triplicate.

[6] = system: S. aureus AD3 (clinical strain); experiment: MBC assay; type: cell-based; conditions: Staphylococcus aureus
Experimental: as §2

[7] = system: S. aureus ATCC 29213; experiment: MBC assay; type: cell-based; conditions: Staphylococcus aureus, ATCC29213
Experimental: as §2

[8] = system: MRSA ATCC 43300; experiment: Post-antibiotic effect (PAE) assay; type: cell-based, Staphylococcus aureus
Experimental: The PAE was carried out as described in the literature. The MRSA was diluted to 10^6 CFU/mL in MHB. The NPDM or tiamulin was added into the bacteria solution at the final concentrations of 2 × MIC and 4 × MIC. Then all tubes were incubated at 37 °C for 1 h or 2 h. Each of the above inoculums was diluted 1000-fold with pre-warmed MHB to remove the test compounds and placed in a water bath at 37 °C immediately. One hundred microliters of suspension were taken from each culture, diluted 10-fold in sterile saline, and inoculated on MHA plates at 0, 1, 2, 4, and 6 h after inoculation. The total number comprising the colonies was counted after incubation at 37 °C for 20 h. The PAE was calculated referring to published methods. The experiment was performed in triplicate.

[9] = system: BRL-3A cells; experiment: Cytotoxicity, MTT assay; type: cell-based; conditions: Rattus norvegicus, 16 h, read-out: 50% inhibition concentration (IC50), cell viability
Experimental: The cytotoxicity of NPDM was evaluated by the MTT assay as previously reported. Briefly, the medium containing 1 × 10^5 BRL-3A cells per 1 mL was seeded into a 96-well plate at 100 μL per well. After incubation for 48 h, media were replaced with 100 μL of serial dilutions of test compounds and incubated for 16 h. The absorbance (A) was measured at 490 nm by an automatic microplate reader (BIO-TEK Instrument Inc., Winooski, VT, USA). The cell viability was calculated according to Equation (1):(1) Cell viability (%) = (Asimple−Anegative)/(Apositive−Anegative)×100%
A graph was constructed by plotting the inhibition percentage versus various concentrations of NPDM and tiamulin, from which the IC50 of NPDM or tiamulin was calculated. The measurement was repeated in triplicate.

[10] = Acute oral toxicity in mice; type: in vivo; conditions: for LD50 at 2 weeks: both sexes, mice, oral single dose; for LD50 at 2 weeks / Mortality / Mortality Rate: mouse, in vivo, po; for Mortality / Mortality Rate: both, 2 weeks
Experimental: The acute oral toxicity of NPDM was evaluated according to the method reported in the literature. Mice were divided into 6 groups (10 animals each group, half male and half female) and were fasted for 12 h before the experiment. The NPDM was dissolved in DMSO and suspended in 0.5% sodium carboxymethyl cellulose solution. The volumes of suspension by oral gavages were 0.1 mL/10 g. The vehicle control group received DMSO without drug. All animals were observed twice daily for symptoms and mortality for two weeks. At the end of the study, all surviving animals were sacrificed.

[11] = system: MRSA ATCC 43300; experiment: Neutropenic mouse systemic infection model; type: in vivo, Staphylococcus aureus; conditions: 30 mg/kg i.v.
Experimental: The survival rate of mice was determined by the systemic infection model according to the literature with some modifications. Neutropenic mice (10 per group, half male and half female) were injected with 0.5 mL MRSA inoculum of 10^6 CFU/mL (100% minimum lethal dose) intraperitoneally. One hour after infection, the mice were administered with NPDM or tiamulin intravenously at a dose of 30 mg/kg body weight. Tiamulin was used as a reference drug. The survival of the mice was recorded for 7 days.

[12] = system: MRSA ATCC 43300; experiment: Galleria mellonella infection model; type: in vivo; conditions: Staphylococcus aureus, 120 h; Galleria mellonella larvae infected with MRSA, survival over 5 days
Experimental: The survival rate of Galleria mellonella was determined according to the literature with some modifications. Larvae of Galleria mellonella (16 per group) were injected with 10 μL of 10^8 CFU/mL MRSA inoculum into the last right proleg. Two hours after infection, larvae were injected with 10 μL of various doses (17.14, 25.71, 37.14, 57.14, and 85.71 mg/kg) of NPDM or tiamulin (used as reference drug) into the last left proleg. The larvae were maintained at 37 °C. Survival of the larvae was recorded daily for 5 days, and the ED50 was calculated.

Structure (SMILES): C=C[C@]1(C)C[C@@H](OC(=O)CN2CCN(C(=O)CN3CCN(c4ccc([N+](=O)[O-])cc4)CC3)CC2)[C@]2(C)[C@H](C)CC[C@]3(CCC(=O)[C@H]32)[C@@H](C)[C@@H]1O [NPDM, 22-(4-(2-(4-nitrophenyl-piperazin-1-yl)-acetyl)-piperazin-1-yl)-22-deoxypleuromutilin]
- MIC [1]: 0.125 µg/mL (≈ 0.18 µM)
- MIC [2]: 0.125 µg/mL (≈ 0.18 µM)
- MIC [3]: 0.125 µg/mL (≈ 0.18 µM)
- MIC [4]: 0.125 µg/mL (≈ 0.18 µM)
- MBC [5]: 0.5 µg/mL (≈ 0.721 µM)
- MBC [6]: 0.5 µg/mL (≈ 0.721 µM)
- MBC [7]: 0.25 µg/mL (≈ 0.36 µM)
- PAE ([8]; 2 × MIC, exposure for 1 h): 2.58 h
- PAE ([8]; 2 × MIC, exposure for 2 h): 3.62 h
- PAE ([8]; 4 × MIC, exposure for 1 h): 3.11 h
- PAE ([8]; 4 × MIC, exposure for 2 h): 4.03 h
- PAE longer than that of tiamulin ([8]; difference vs tiamulin): 1~2 h
- IC50 [9]: 9.64 µg/mL (≈ 13.9 µM)
- Acute toxicity classification ([10]; LD50 in the range of 501~5000 mg/kg): low-toxic compound
- LD50 at 2 weeks ([10]; modified Karber's formula, read-out: LD50): 3760 mg/kg
- LD50 at 2 weeks ([10]; read-out: LD50 95% confidence interval): 3010 to 4710 mg/kg
- Mortality ([10]; 987.65 mg/kg): 1
- Mortality Rate ([10]; 987.65 mg/kg): 10%
- Mortality ([10]; 1481.48 mg/kg): 1
- Mortality Rate ([10]; 1481.48 mg/kg): 10%
- Mortality ([10]; 2222.22 mg/kg): 2
- Mortality Rate ([10]; 2222.22 mg/kg): 20%
- Mortality ([10]; 3333.33 mg/kg): 3
- Mortality Rate ([10]; 3333.33 mg/kg): 30%
- Mortality ([10]; 5000 mg/kg): 5
- Mortality Rate ([10]; 5000 mg/kg): 50%
- Survival rate at the endpoint ([11]; lethal MRSA challenge, 7 days, neutropenic mice): 70%
- Survival rate higher than that of the tiamulin-treated group ([11]; difference vs tiamulin): 20%
- ED50 [12]: 50.5 mg/kg
